{
  "source": "paper PMC5218480",
  "about": "(PLoS ONE, 2017)",
  "system": "MV-4-11 cells",
  "experiment": "Gene expression microarray analysis (Affymetrix PrimeView) and GSEA",
  "format": "cell-based, human",
  "design": "RFU PODN (11730768_x_at) / Fold change /veh PODN (11730768_x_at) / RFU LINC00158 (11744669_a_at) / Fold change /veh LINC00158 (11744669_a_at) / RFU DUSP10 (11751237_a_at) / Fold change /veh DUSP10 (11751237_a_at) / RFU ID3 (11757404_x_at) / Fold change /veh ID3 (11757404_x_at) / RFU PLEKHG5 (11737974_s_at) / Fold change /veh PLEKHG5 (11737974_s_at) / RFU LRRC4B (11730491_at) / Fold change /veh LRRC4B (11730491_at) / RFU GIMAP4 (11747438_a_at) / Fold change /veh GIMAP4 (11747438_a_at) / RFU KRT8 (11758183_x_at) / Fold change /veh KRT8 (11758183_x_at) / RFU CNN1 (11734310_a_at) / Fold change /veh CNN1 (11734310_a_at) / RFU VPS37D (11726825_at) / Fold change /veh VPS37D (11726825_at) / RFU C10orf10 (11716522_x_at) / Fold change /veh C10orf10 (11716522_x_at) / RFU KIR2DL2 /// KIR2DL4 /// KIR2DL5A /// KIR2DL5B /// KIR2DS1 /// KIR2DS2 /// KIR2DS3 /// KIR2DS4 /// KIR3DL3 /// KIR3DL3 /// KIR3DS1 (11738374_at) / Fold change /veh KIR2DL2 /// KIR2DL4 /// KIR2DL5A /// KIR2DL5B /// KIR2DS1 /// KIR2DS2 /// KIR2DS3 /// KIR2DS4 /// KIR3DL3 /// KIR3DL3 /// KIR3DS1 (11738374_at) / RFU C1QL1 (11718748_at) / Fold change /veh C1QL1 (11718748_at) / RFU TMPRSS4 (11747572_a_at) / Fold change /veh TMPRSS4 (11747572_a_at) / RFU HAMP (11756126_x_at) / Fold change /veh HAMP (11756126_x_at) / RFU RNFT2 (11725882_a_at) / Fold change /veh RNFT2 (11725882_a_at) / RFU NR4A2 (11747474_a_at) / Fold change /veh NR4A2 (11747474_a_at) / RFU ABCC12 (11746883_a_at) / Fold change /veh ABCC12 (11746883_a_at) / RFU TMEM136 (11760407_x_at) / Fold change /veh TMEM136 (11760407_x_at) / RFU CLDN22 /// WWC2 (11732394_at) / Fold change /veh CLDN22 /// WWC2 (11732394_at) / RFU HLA-DPB1 (11760878_x_at) / Fold change /veh HLA-DPB1 (11760878_x_at) / RFU SPINT1 (11716480_a_at) / Fold change /veh SPINT1 (11716480_a_at) / RFU GAP43 (11754022_s_at) / Fold change /veh GAP43 (11754022_s_at) / RFU A4GNT (11735810_at) / Fold change /veh A4GNT (11735810_at) / RFU PRB3 (11715151_x_at) / Fold change /veh PRB3 (11715151_x_at) / RFU TUBB4B (11761932_at) / Fold change /veh TUBB4B (11761932_at) / RFU CAPN14 (11732068_a_at) / Fold change /veh CAPN14 (11732068_a_at) / RFU TMCC2 (11721928_a_at) / Fold change /veh TMCC2 (11721928_a_at) / RFU IRGQ (11745062_a_at) / Fold change /veh IRGQ (11745062_a_at) / RFU FAM174B (11720279_a_at) / Fold change /veh FAM174B (11720279_a_at) / RFU TMPRSS4 (11748680_a_at) / Fold change /veh TMPRSS4 (11748680_a_at) / RFU FAM212B (11763350_a_at) / Fold change /veh FAM212B (11763350_a_at) / RFU PLEKHG5 (11743358_a_at) / Fold change /veh PLEKHG5 (11743358_a_at) / RFU ZSCAN30 (11745921_a_at) / Fold change /veh ZSCAN30 (11745921_a_at) / RFU CMKLR1 (11741424_a_at) / Fold change /veh CMKLR1 (11741424_a_at) / RFU LOC101060620 /// MAPK8IP1 (11723275_at) / Fold change /veh LOC101060620 /// MAPK8IP1 (11723275_at) / RFU SPTSSB (11747773_x_at) / Fold change /veh SPTSSB (11747773_x_at) / RFU PRSS12 (11739890_at) / Fold change /veh PRSS12 (11739890_at) / RFU BIN1 (11741810_x_at) / Fold change /veh BIN1 (11741810_x_at) / RFU WNT11 (11732464_a_at) / Fold change /veh WNT11 (11732464_a_at) / RFU C10orf10 (11716521_a_at) / Fold change /veh C10orf10 (11716521_a_at) / RFU C5orf56 (11738089_at) / Fold change /veh C5orf56 (11738089_at) / RFU CYB561 (11721691_x_at) / Fold change /veh CYB561 (11721691_x_at) / RFU ANKRD19P (11752326_a_at) / Fold change /veh ANKRD19P (11752326_a_at) / RFU OR2T12 /// OR2T33 /// OR2T8 (11738714_s_at) / Fold change /veh OR2T12 /// OR2T33 /// OR2T8 (11738714_s_at) / RFU VCAN (11748164_a_at) / Fold change /veh VCAN (11748164_a_at) / RFU JSRP1 (11732532_at) / Fold change /veh JSRP1 (11732532_at) / RFU KRTAP10-11 (11738290_x_at) / Fold change /veh KRTAP10-11 (11738290_x_at) / RFU MYO3A (11730013_a_at) / Fold change /veh MYO3A (11730013_a_at) / RFU EBF3 (11725865_a_at) / Fold change /veh EBF3 (11725865_a_at) / RFU CAMK2N1 (11719241_x_at) / Fold change /veh CAMK2N1 (11719241_x_at) / RFU C5orf56 (11738088_a_at) / Fold change /veh C5orf56 (11738088_a_at) / RFU OLFML3 (11715873_a_at) / Fold change /veh OLFML3 (11715873_a_at) / RFU LOC100653217 /// NTM (11731650_a_at) / Fold change /veh LOC100653217 /// NTM (11731650_a_at) / RFU MAPK11 (11762145_a_at) / Fold change /veh MAPK11 (11762145_a_at) / RFU FIZ1 (11724087_x_at) / Fold change /veh FIZ1 (11724087_x_at) / RFU OASL (11726364_x_at) / Fold change /veh OASL (11726364_x_at) / RFU SOX15 (11748057_x_at) / Fold change /veh SOX15 (11748057_x_at) / RFU CD79A (11719716_a_at) / Fold change /veh CD79A (11719716_a_at) / RFU HIST1H1D (11736915_at) / Fold change /veh HIST1H1D (11736915_at) / RFU CASKIN2 (11723855_a_at) / Fold change /veh CASKIN2 (11723855_a_at) / RFU LOC730098 (11760151_x_at) / Fold change /veh LOC730098 (11760151_x_at) / RFU OR4N2 (11742367_at) / Fold change /veh OR4N2 (11742367_at) / RFU PRRT2 (11749266_a_at) / Fold change /veh PRRT2 (11749266_a_at) / RFU SNX32 (11753110_a_at) / Fold change /veh SNX32 (11753110_a_at) / RFU CDHR5 (11726645_a_at) / Fold change /veh CDHR5 (11726645_a_at) / RFU RCAN1 (11760418_a_at) / Fold change /veh RCAN1 (11760418_a_at) / RFU FAM167A (11723789_a_at) / Fold change /veh FAM167A (11723789_a_at) / RFU FAM26E (11764081_at) / Fold change /veh FAM26E (11764081_at) / RFU ISYNA1 (11749810_s_at) / Fold change /veh ISYNA1 (11749810_s_at) / RFU ACY1 (11761880_at) / Fold change /veh ACY1 (11761880_at) / RFU 11764098_at / Fold change /veh 11764098_at / RFU SAMD14 (11745864_x_at) / Fold change /veh SAMD14 (11745864_x_at) / RFU NPB (11741838_a_at) / Fold change /veh NPB (11741838_a_at) / RFU TMPRSS6 (11731388_a_at) / Fold change /veh TMPRSS6 (11731388_a_at) / RFU KRTAP10-2 (11738614_at) / Fold change /veh KRTAP10-2 (11738614_at) / RFU ARHGAP8 /// PRR5-ARHGAP8 (11727945_x_at) / Fold change /veh ARHGAP8 /// PRR5-ARHGAP8 (11727945_x_at) / RFU KRTAP5-7 /// NADSYN1 (11734609_at) / Fold change /veh KRTAP5-7 /// NADSYN1 (11734609_at) / RFU RASL12 (11751679_a_at) / Fold change /veh RASL12 (11751679_a_at) / RFU CDKN2B (11736163_a_at) / Fold change /veh CDKN2B (11736163_a_at) / RFU PRF1 (11729649_at) / Fold change /veh PRF1 (11729649_at) / RFU, ZNF638 /// ZNF638-IT1 / Fold change vs veh, ZNF638 /// ZNF638-IT1 / RFU, PANK3 / Fold change vs veh, PANK3 / RFU, SH3YL1 / Fold change vs veh, SH3YL1 / RFU, ZEB2 / Fold change vs veh, ZEB2 / RFU, NRIP1 / Fold change vs veh, NRIP1 / RFU, PTTG1IP / Fold change vs veh, PTTG1IP / RFU, CAPN2 / Fold change vs veh, CAPN2 / RFU, MED14 / Fold change vs veh, MED14 / RFU, SNORA58 / Fold change vs veh, SNORA58 / RFU, C1orf63 / Fold change vs veh, C1orf63 / RFU, LRRFIP1 / Fold change vs veh, LRRFIP1 / RFU, NDUFAF7 / Fold change vs veh, NDUFAF7 / RFU, SLC12A2 / Fold change vs veh, SLC12A2 / RFU, IBTK / Fold change vs veh, IBTK / RFU, ESF1 / Fold change vs veh, ESF1 / Fold change vs veh, TMEM50B / RFU, TAOK1 / Fold change vs veh, TAOK1 / RFU, ACBD3 / Fold change vs veh, ACBD3 / RFU, TMA16 / Fold change vs veh, TMA16 / RFU, RWDD3 / Fold change vs veh, RWDD3 / RFU, BCAT1 / Fold change vs veh, BCAT1 / RFU, EDEM3 / Fold change vs veh, EDEM3 / RFU, TMEM33 / Fold change vs veh, TMEM33 / RFU, WDR75 / Fold change vs veh, WDR75 / RFU, AHCTF1 / Fold change vs veh, AHCTF1 / RFU, TFRC / Fold change vs veh, TFRC / RFU, ZDHHC17 / Fold change vs veh, ZDHHC17 / RFU, NOM1 / Fold change vs veh, NOM1 / RFU, ARL8B / Fold change vs veh, ARL8B / RFU, ZBTB11 / Fold change vs veh, ZBTB11 / RFU, TAMM41 / Fold change vs veh, TAMM41 / RFU, KIAA1704 /// LOC100996395 / Fold change vs veh, KIAA1704 /// LOC100996395 / RFU, ING1 / Fold change vs veh, ING1 / RFU, TRMT61B / Fold change vs veh, TRMT61B / RFU, FUBP3 / Fold change vs veh, FUBP3 / RFU, TP53 / Fold change vs veh, TP53 / RFU, TNKS2 / Fold change vs veh, TNKS2 / RFU, ZFP14 / Fold change vs veh, ZFP14 / RFU, ACTR2 / Fold change vs veh, ACTR2 / RFU, PPP3R1 / Fold change vs veh, PPP3R1 / RFU, PIK3R1 / Fold change vs veh, PIK3R1 / RFU, HNRNPA1 / Fold change vs veh, HNRNPA1 / RFU, RNF170 / Fold change vs veh, RNF170 / RFU, ZNF28 / Fold change vs veh, ZNF28 / RFU, RNGTT / Fold change vs veh, RNGTT / RFU, OGT / Fold change vs veh, OGT / RFU, BRD1 / Fold change vs veh, BRD1 / RFU, MARS / Fold change vs veh, MARS / RFU, ZNF655 / Fold change vs veh, ZNF655 / RFU, FAHD1 / Fold change vs veh, FAHD1 / RFU, BDP1 / Fold change vs veh, BDP1 / RFU, LRRCC1 / Fold change vs veh, LRRCC1 / RFU, ARID1A / Fold change vs veh, ARID1A / RFU, ZNF146 / Fold change vs veh, ZNF146 / RFU, ZNF330 / Fold change vs veh, ZNF330 / RFU, GPN3 / Fold change vs veh, GPN3 / RFU, C9orf123 / Fold change vs veh, C9orf123 / RFU, N4BP2L2 / Fold change vs veh, N4BP2L2 / RFU, ARFIP1 / Fold change vs veh, ARFIP1 / RFU, FAM179B / Fold change vs veh, FAM179B / RFU, BCL10 / Fold change vs veh, BCL10 / RFU, UHRF1BP1L / Fold change vs veh, UHRF1BP1L / RFU, BET1 / Fold change vs veh, BET1 / RFU, CNOT2 / Fold change vs veh, CNOT2 / RFU, ZNF268 / Fold change vs veh, ZNF268 / Fold change vs veh, ZNF507 / RFU, DGCR2 / Fold change vs veh, DGCR2 / RFU, WDSUB1 / Fold change vs veh, WDSUB1 / Fold change vs veh, HSP90B1 /// MIR3652 / RFU, ADSS / Fold change vs veh, ADSS / RFU, GK / Fold change vs veh, GK / RFU, ZNF148 / Fold change vs veh, ZNF148 / RFU, TAF9 / Fold change vs veh, TAF9 / RFU, SLC1A5 / Fold change vs veh, SLC1A5 / RFU, SLMO2 / Fold change vs veh, SLMO2 / RFU, ABCC4 / Fold change vs veh, ABCC4 / RFU, LOC101060439 /// RAP1B / Fold change vs veh, LOC101060439 /// RAP1B / RFU, RFX7 / Fold change vs veh, RFX7 / RFU, GTPBP10 / Fold change vs veh, GTPBP10 / RFU, CNEP1R1 / Fold change vs veh, CNEP1R1 / RFU, BIVM-ERCC5 /// ERCC5 / Fold change vs veh, BIVM-ERCC5 /// ERCC5 / RFU, ILF3 / Fold change vs veh, ILF3 / RFU 11762660_at / Fold change /veh 11762660_at / RFU VCAN (11757783_s_at) / Fold change /veh VCAN (11757783_s_at) / RFU DDX43 (11728927_at) / Fold change /veh DDX43 (11728927_at) / RFU KRT8 (11758188_x_at) / Fold change /veh KRT8 (11758188_x_at) / RFU NKD1 (11759106_at) / Fold change /veh NKD1 (11759106_at) / RFU SRD5A1 (11742802_a_at) / Fold change /veh SRD5A1 (11742802_a_at) / RFU TPSAB1 /// TPSB2 (11721975_s_at) / Fold change /veh TPSAB1 /// TPSB2 (11721975_s_at) / RFU GSTM3 (11746129_a_at) / Fold change /veh GSTM3 (11746129_a_at) / RFU IL23R (11737362_x_at) / Fold change /veh IL23R (11737362_x_at) / RFU TMEM51 (11727254_a_at) / Fold change /veh TMEM51 (11727254_a_at) / RFU PIWIL2 (11732686_x_at) / Fold change /veh PIWIL2 (11732686_x_at) / RFU ORM1 (11744905_x_at) / Fold change /veh ORM1 (11744905_x_at) / RFU CCDC152 (11743942_at) / Fold change /veh CCDC152 (11743942_at) / RFU ECM1 (11717891_a_at) / Fold change /veh ECM1 (11717891_a_at) / RFU IL23R (11748794_a_at) / Fold change /veh IL23R (11748794_a_at) / RFU TNFAIP8L3 (11732012_x_at) / Fold change /veh TNFAIP8L3 (11732012_x_at) / RFU MBOAT4 (11741988_at) / Fold change /veh MBOAT4 (11741988_at) / RFU 11764193_at / Fold change /veh 11764193_at / RFU TMEM53 (11763286_at) / Fold change /veh TMEM53 (11763286_at) / RFU MAGEB2 (11727129_at) / Fold change /veh MAGEB2 (11727129_at) / RFU TMEM200A (11744735_a_at) / Fold change /veh TMEM200A (11744735_a_at) / RFU CCDC152 (11751479_a_at) / Fold change /veh CCDC152 (11751479_a_at) / RFU FAM211A (11726209_a_at) / Fold change /veh FAM211A (11726209_a_at) / RFU RGS16 (11746705_a_at) / Fold change /veh RGS16 (11746705_a_at) / RFU VCAN (11755009_s_at) / Fold change /veh VCAN (11755009_s_at) / RFU RHOB (11743442_s_at) / Fold change /veh RHOB (11743442_s_at) / RFU RGS16 (11720943_a_at) / Fold change /veh RGS16 (11720943_a_at) / RFU RGS16 (11720944_at) / Fold change /veh RGS16 (11720944_at) / RFU, VPS4B / Fold change vs veh, VPS4B / RFU, CREB1 / Fold change vs veh, CREB1 / RFU, DNAJC13 / Fold change vs veh, DNAJC13 / RFU, GNAQ / Fold change vs veh, GNAQ / RFU, CDK5R1 / Fold change vs veh, CDK5R1 / RFU, ZRANB3 / Fold change vs veh, ZRANB3 / RFU, CUL4A / Fold change vs veh, CUL4A / RFU, CCNY / Fold change vs veh, CCNY / RFU, UFL1 / Fold change vs veh, UFL1 / RFU, COG3 / Fold change vs veh, COG3 / RFU, DIAPH2 / Fold change vs veh, DIAPH2 / RFU, SKA2 / Fold change vs veh, SKA2 / RFU, AFF3 / Fold change vs veh, AFF3 / RFU, LMF1 / Fold change vs veh, LMF1 / RFU, IPO11 / Fold change vs veh, IPO11 / RFU, DFFB / Fold change vs veh, DFFB / RFU, FOXP1 / Fold change vs veh, FOXP1 / RFU, CARD8 / Fold change vs veh, CARD8 / RFU, STRN3 / Fold change vs veh, STRN3 / RFU, ADK / Fold change vs veh, ADK / RFU, RASSF2 / Fold change vs veh, RASSF2 / RFU, WIPF1 / Fold change vs veh, WIPF1 / RFU, LARP1B / Fold change vs veh, LARP1B / RFU, RASA1 / Fold change vs veh, RASA1 / RFU, RB1 / Fold change vs veh, RB1 / RFU, PPFIA1 / Fold change vs veh, PPFIA1 / RFU, MAT2A / Fold change vs veh, MAT2A / RFU, CCT5 / Fold change vs veh, CCT5 / RFU, WDR92 / Fold change vs veh, WDR92 / RFU, CUX1 / Fold change vs veh, CUX1 / RFU, TTC7A / Fold change vs veh, TTC7A / RFU, TMEM135 / Fold change vs veh, TMEM135 / RFU, DEPTOR / Fold change vs veh, DEPTOR / RFU, CPM / Fold change vs veh, CPM / RFU, DNAJB6 / Fold change vs veh, DNAJB6 / RFU, CACNA2D3 / Fold change vs veh, CACNA2D3 / RFU, DTX4 / Fold change vs veh, DTX4 / RFU, TFCP2 / Fold change vs veh, TFCP2 / RFU, GMCL1 /// GMCL1P1 / Fold change vs veh, GMCL1 /// GMCL1P1 / RFU, AEBP2 / Fold change vs veh, AEBP2 / RFU, SNHG1 /// SNORD22 /// SNORD25 /// SNORD26 /// SNORD27 /// SNORD28 /// SNORD29 /// SNORD31 / Fold change vs veh, SNHG1 /// SNORD22 /// SNORD25 /// SNORD26 /// SNORD27 /// SNORD28 /// SNORD29 /// SNORD31 / Fold change (Aza/veh), C12orf56 (ProbeSet 11735607_a_at) / Fold change (ACY-1035/veh), C12orf56 (ProbeSet 11735607_a_at) / Fold change (Aza/veh), FGFR1OP (ProbeSet 11751329_s_at) / Fold change (ACY-1035/veh), FGFR1OP (ProbeSet 11751329_s_at) / Fold change (Aza/veh), VPS36 (ProbeSet 11739960_a_at) / Fold change (ACY-1035/veh), VPS36 (ProbeSet 11739960_a_at) / RFU SYPL1 (11715823_x_at) / Fold change /veh SYPL1 (11715823_x_at) / RFU IGFBP7 (11715501_s_at) / Fold change /veh IGFBP7 (11715501_s_at) / RFU REEP3 (11722064_at) / Fold change /veh REEP3 (11722064_at) / RFU IGLL1 (11728026_x_at) / Fold change /veh IGLL1 (11728026_x_at): dose or concentration left out as unconfirmed",
  "conditions": "MV-4-11 cells, 48 hours",
  "data": [
    {"smiles": "Nc1ncn([C@@H]2O[C@H](CO)[C@@H](O)[C@H]2O)c(=O)n1", "note": "[azacitidine]", "values": [
      {"measurement": "RFU PRRT2 (11749266_a_at)", "result": 42.08, "unit": "RFU"}
    ]}
  ]
}
